In this experiment the target is T1, human recombinant OX2 (hOX2) receptor (Homo sapiens, UniProt O43614).
T1 construct: host or cells: CHO cells
T1 sequence (O43614 1-444): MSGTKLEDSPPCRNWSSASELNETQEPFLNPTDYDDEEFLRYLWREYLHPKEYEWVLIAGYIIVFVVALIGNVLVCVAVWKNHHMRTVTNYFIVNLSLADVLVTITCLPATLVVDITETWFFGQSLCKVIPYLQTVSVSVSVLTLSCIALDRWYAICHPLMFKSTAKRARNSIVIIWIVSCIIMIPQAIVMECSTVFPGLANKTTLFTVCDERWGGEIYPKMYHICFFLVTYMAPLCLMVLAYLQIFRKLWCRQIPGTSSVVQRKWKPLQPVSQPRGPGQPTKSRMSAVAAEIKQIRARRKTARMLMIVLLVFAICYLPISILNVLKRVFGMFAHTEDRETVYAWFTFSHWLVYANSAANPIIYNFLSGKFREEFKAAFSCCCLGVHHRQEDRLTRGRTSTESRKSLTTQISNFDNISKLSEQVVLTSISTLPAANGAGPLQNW
Nature of the experiment: IP-1 accumulation assay (IP-One HTRF) in hOX2-CHO cells. Conditions: 60 min at 37° C., mean of at least two independent experiments, read-out: EC50_OX2R Category. The class given is cell-based. The method, then:
Example 94: IP-1 Accumulation Assay
The accumulation of Inositol-1 Monophosphate (IP-1) was measured using IP-One HTRF® Terbium cryptate based assay (Cisbio) in human recombinant OX1 (hOX1) and at OX2 (hOX2) receptors expressed in CHO cells (DiscoverX) according to the manufacturer's instructions for cells tested in suspension.
hOX1-CHO and hOX2-CHO cells were seeded into white 384-well plates at a density of 20,000 cells/well in Hank's Balanced Salt Solution (HBSS) containing 20 mM HEPES pH 7.4, 50 mM, LiCl and 0.1% and Bovine Serum Albumin (BSA).
Compounds of the present disclosure were tested in a 11 points concentration response curve (CRC) serially diluted in neat DMSO at 200 fold concentrations and added by Echo acoustic liquid handling (Labcyte) to the cells (0.5% DMSO final in the assay). After 60 min of incubation at 37° C. detection reagents, IP1-d2 tracer and anti-IP1-cryptate were diluted in lysis buffer according to the manufacturer's descriptions and added to the cells.
Following 60 mi incubation at room temperature, time-resolved fluorescence (HTRF) was measured at 615 nm and 665 nm by Envision Multilabel reader (Perkin Elmer) and the HTRF ratio (A665/A615×10^4) was calculated.
The IP-1 accumulation response was expressed as percentage of the maximal OX-A response.
Curve fitting and EC50 estimations were carried out using a four-parameter logistic model using XLfit Software. Mean data of EC50 are calculated from at least two independent experiments performed in duplicates.
As to `O=C1N[C@]2(CCO1)[C@H](Cc1cccc(-c3cc(F)cc(F)c3)c1F)N(C(=O)[C@H]1C[C@@H](F)C1)CC2(F)F` (relative stereo) [Example 79, rel-(1S,5R)-4,4-difluoro-2-[(CIS)-3-fluorocyclobutanecarbonyl]-1-({2,3′,5′-trifluoro-[1,1′-biphenyl]-3-yl}methyl)-8-oxa-2,6-diazaspiro[4.5]decan-7-one], the EC50 lay in the range of 100 to 1000 nM.
As for `CCNC(=O)N1CCC[C@]2(COCC(=O)N2)[C@H]1CO[C@H]1CC[C@@H](c2ccccc2)CC1` (single isomer, unassigned) [Example 2], the EC50 was in the range of 1000 to 10000 nM.
Next, `CCNC(=O)N1CCC[C@@]2(COCC(=O)N2)[C@@H]1CO[C@H]1CC[C@@H](c2ccccc2)CC1` (single isomer, unassigned) [Example 3]: less than 100 nM; `COC(=O)N1CCC[C@]2(COCC(=O)N2)[C@H]1CO[C@H]1CC[C@@H](c2ccccc2)CC1` (single isomer, unassigned) [Example 5]: more than 10000 nM; `COC(=O)N1CCC[C@@]2(COCC(=O)N2)[C@@H]1CO[C@H]1CC[C@@H](c2ccccc2)CC1` (single isomer, unassigned) [Example 6]: 100 to 1000 nM.
Next, `O=C1COC[C@]2(CCCN(C(=O)C3CC3)[C@@H]2CO[C@H]2CC[C@@H](c3ccccc3)CC2)N1` (single isomer, unassigned) [Example 8]: more than 10000 nM; `O=C1COC[C@@]2(CCCN(C(=O)C3CC3)[C@H]2CO[C@H]2CC[C@@H](c3ccccc3)CC2)N1` (single isomer, unassigned) [Example 9]: 100 to 1000 nM; `CCNC(=O)N1CCC[C@]2(CCOC(=O)N2)[C@H]1CO[C@H]1CC[C@@H](c2ccccc2)CC1` (single isomer, unassigned) [Example 13]: more than 10000 nM.
For `CCNC(=O)N1CCC[C@@]2(CCOC(=O)N2)[C@@H]1CO[C@H]1CC[C@@H](c2ccccc2)CC1` (single isomer, unassigned) [Example 14], the EC50 is less than 100 nM.
Next, `CCNC(=O)N1CC[C@@]2(COCC(=O)N2)[C@@H]1CO[C@H]1CC[C@@H](c2ccccc2)CC1` (single isomer, unassigned) [Example 16]: 100 to 1000 nM; `CCNC(=O)N1CC[C@]2(COCC(=O)N2)[C@H]1CO[C@H]1CC[C@@H](c2ccccc2)CC1` (single isomer, unassigned) [Example 17]: more than 10000 nM.
In the case of `COC(=O)N1CCC[C@]2(CCOC(=O)N2)[C@H]1Cc1cccc(-c2ccccc2)c1` (single isomer, unassigned) [Example 20], the EC50 is more than 10000 nM.
In the case of `COC(=O)N1CCC[C@@]2(CCOC(=O)N2)[C@@H]1Cc1cccc(-c2ccccc2)c1` (single isomer, unassigned) [Example 21] it was more than 10000 nM; in that of `COC(=O)N1CCC[C@]2(CCOC(=O)N2)[C@@H]1Cc1cccc(-c2ccccc2)c1` (single isomer, unassigned) [Example 22], more than 10000 nM; in that of `COC(=O)N1CCC[C@@]2(CCOC(=O)N2)[C@H]1Cc1cccc(-c2ccccc2)c1` (single isomer, unassigned) [Example 23], more than 10000 nM.
Take `CCNC(=O)N1CCC[C@@]2(CNS(=O)(=O)N2)[C@@H]1Cc1cccc(-c2ccccc2)c1` (single isomer, unassigned) [Example 31]: the EC50 is more than 10000 nM.
`CCNC(=O)N1CCC[C@]2(CNS(=O)(=O)N2)[C@H]1Cc1cccc(-c2ccccc2)c1` (single isomer, unassigned) [Example 32]: the EC50 is more than 10000 nM.
In the case of `CCNC(=O)N1CCC[C@]2(CCCC(=O)N2)[C@H]1CO[C@H]1CC[C@@H](c2ccccc2)CC1` (single isomer, unassigned) [Example 34] it was more than 10000 nM.
In the case of `CCNC(=O)N1CCC[C@@]2(CCCC(=O)N2)[C@@H]1CO[C@H]1CC[C@@H](c2ccccc2)CC1` (single isomer, unassigned) [Example 35] it was less than 100 nM.
`CCNC(=O)N1CCC[C@]2(COC(C)C(=O)N2)[C@H]1CO[C@H]1CC[C@@H](c2ccccc2)CC1` (single isomer, unassigned) [Example 39]: the EC50 is more than 10000 nM.
Next, `CCNC(=O)N1CCC[C@@]2(COC(C)C(=O)N2)[C@@H]1CO[C@H]1CC[C@@H](c2ccccc2)CC1` (single isomer, unassigned) [Example 40]: less than 100 nM; `CCNC(=O)N1CCC[C@]2(COC(F)C(=O)N2)[C@H]1CO[C@H]1CC[C@@H](c2ccccc2)CC1` (single isomer, unassigned) [Example 42]: 1000 to 10000 nM; `CCNC(=O)N1CCC[C@@]2(COC(F)C(=O)N2)[C@@H]1CO[C@H]1CC[C@@H](c2ccccc2)CC1` (single isomer, unassigned) [Example 43]: less than 100 nM.
Next, `CCNC(=O)N1CCC(F)(F)[C@@]2(CCOC(=O)N2)[C@@H]1CO[C@H]1CC[C@@H](c2ccccc2)CC1` (single isomer, unassigned) [Example 45]: less than 100 nM; `CCNC(=O)N1CCC(F)(F)[C@]2(CCOC(=O)N2)[C@H]1CO[C@H]1CC[C@@H](c2ccccc2)CC1` (single isomer, unassigned) [Example 46]: more than 10000 nM.
Next, `O=C1N[C@]2(CCCN(C(=O)[C@H]3C[C@@H](F)C3)[C@H]2CO[C@H]2CC[C@@H](c3ccccc3)CC2)CCO1` (single isomer, unassigned) [Example 66]: less than 100 nM; `O=C1N[C@@]2(CCCN(C(=O)[C@H]3C[C@@H](F)C3)[C@@H]2CO[C@H]2CC[C@@H](c3ccccc3)CC2)CCO1` (single isomer, unassigned) [Example 67]: more than 10000 nM; `O=C1COC[C@@]2(CCN(C(=O)[C@H]3C[C@@H](F)C3)[C@H]2Cc2cccc(-c3cc(F)cc(F)c3)c2F)N1` (single isomer, unassigned) [Example 72]: 100 to 1000 nM.
Turning to `O=C1COC[C@]2(CCN(C(=O)[C@H]3C[C@@H](F)C3)[C@@H]2Cc2cccc(-c3cc(F)cc(F)c3)c2F)N1` (single isomer, unassigned) [Example 73], the EC50 is more than 10000 nM.
Next, `O=C1N[C@]2(CCN(C(=O)OCC(F)F)[C@H]2Cc2cccc(-c3cc(F)cc(F)c3)c2F)COC1F` (single isomer, unassigned) [Example 74]: 1000 to 10000 nM; `O=C1N[C@@]2(CCN(C(=O)OCC(F)F)[C@@H]2Cc2cccc(-c3cc(F)cc(F)c3)c2F)COC1F` (single isomer, unassigned) [Example 75]: more than 10000 nM.
In the case of `C[C@@H]1C[C@@]2(COCC(=O)N2)[C@H](Cc2cccc(-c3cc(F)cc(F)c3)c2F)N1C(=O)C1CC1F` (single isomer, unassigned) [Example 90] it was 100 to 1000 nM.
In the case of `C[C@@H]1C[C@@]2(COCC(=O)N2)[C@H](Cc2cccc(-c3cc(F)cc(F)c3)c2F)N1C(=O)C1CC1F` (single isomer, unassigned) [Example 91] it was 100 to 1000 nM; in that of `C[C@@H]1C[C@@]2(COCC(=O)N2)[C@H](Cc2cccc(-c3cc(F)cc(F)c3)c2F)N1C(=O)C1CC1F` (single isomer, unassigned) [Example 92], 100 to 1000 nM; in that of `CCNC(=O)N1CCCC2(CCOC(=O)N2)C1CO[C@H]1CC[C@@H](c2ccccc2)CC1` (stereo partly drawn) [Example 11, (CIS)-N-ethyl-2-oxo-7-({[(CIS)-4-phenylcyclohexyl]oxy}methyl)-3-oxa-1,8-diazaspiro[5.5]undecane-8-carboxamide], less than 100 nM.
As for `CCNC(=O)N1CCCC2(CCOC(=O)N2)C1CO[C@H]1CC[C@@H](c2ccccc2)CC1` (stereo partly drawn) [Example 12, (Trans)-N-ethyl-2-oxo-7-({[(CIS)-4-phenylcyclohexyl]oxy}methyl)-3-oxa-1,8-diazaspiro[5.5]undecane-8-carboxamide], the EC50 lay in the range of 1000 to 10000 nM.
Next, `COC(=O)N1CCCC2(CCOC(=O)N2)C1Cc1cccc(-c2ccccc2)c1` (centres unmarked) [Example 19, Methyl 7-({[1,1′-biphenyl]-3-yl}methyl)-2-oxo-3-oxa-1,8-diazaspiro[5.5]undecane-8-carboxylate]: more than 10000 nM; `CCNC(=O)N1CCC[C@]2(CCOC(=O)N2)[C@H]1Cc1cccc(-c2ccccc2)c1` [Example 26, (6S,7R)-7-({[1,1′-biphenyl]-3-yl}methyl)-N-ethyl-2-oxo-3-oxa-1,8-diazaspiro[5.5]undecane-8-carboxamide]: more than 10000 nM.

Values taken from patent publication US20240254143A1, “OREXIN RECEPTOR AGONISTS AND USES THEREOF” (JAZZ PHARMACEUTICALS IRELAND LIMITED, priority 2021, published 2024).
